Laboratory results from the supplement of paper PMC11451515.

Columns and labels:
Conditions in all cases: 48 h
[1] = tested on: NOMO1; experiment: cell viability relative to DMSO control; higher = less cytotoxic
Outline: (§1)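 Three leukemia lines were tested: NOMO1 and SEM at 500 cells/well and P12-Ichikawa at 1000 cells/well. Each was adapted for at least four passages in each medium and seeded in 5 μl in 1536-well plates, and library compounds in DMSO were pin-dosed from 47 μM to 0.79 nM in 11 threefold steps. After 48 h at 37°C, CellTiter-Glo One luminescence was read. Viability is a percentage relative to DMSO wells on each plate, with cell-free wells as background.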

[2] = tested on: P12-Ichikawa; experiment: as above
Outline: as §1

[3] = tested on: SEM cells; experiment: as above
Outline: as §1

[4] = tested on: NOMO1; experiment: AUC of viability dose-response curve (% viability x log10 dose units); higher = less sensitive
Outline: (§2)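 Viability of medium-adapted leukemia cells was measured by CellTiter-Glo One luminescence after 48 h at 37°C with library compounds in DMSO. Doses were 11 threefold steps from 47 μM to 0.79 nM, in 1536-well plates at 500 or 1000 cells/well. Signals were normalised per plate to DMSO and cell-free wells and fitted with a four-parameter log-logistic model on log10 dose. Area under the curve was integrated by trapezoidal rule, with curves exceeding full viability scaled and failed quality-control curves removed.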

[5] = tested on: P12-Ichikawa; experiment: as above
Outline: as §2

[6] = tested on: SEM cells; experiment: as above
Outline: as §2

CC1(C)O[C@@H]2C[C@H]3[C@@H]4CCC5=CC(=O)C=C[C@]5(C)[C@@]4(F)[C@@H](O)C[C@]3(C)[C@]2(C(=O)CO)O1
cell viability [%]
Conditions | [1] | [2] | [3]
HPLM + 10% dialyzed FBS, 0.000781 µM | 110 | 101 | 74.9
HPLM + 10% dialyzed FBS, 0.00234 µM | 119 | 105 | 83.6
HPLM + 10% dialyzed FBS, 0.00702 µM | 112 | 104 | 109
HPLM + 10% dialyzed FBS, 0.0211 µM | 111 | 100 | 50.6
HPLM + 10% dialyzed FBS, 0.0632 µM | 117 | 86.2 | 91.2
HPLM + 10% dialyzed FBS, 0.19 µM | 108 | 76.7 | 83.5
HPLM + 10% dialyzed FBS, 0.569 µM | 90.6 | 55.6 | 6.87
HPLM + 10% dialyzed FBS, 1.71 µM | 105 | 63.2 | 30.7
HPLM + 10% dialyzed FBS, 5.12 µM | 86.3 | 39.4 | 14.9
HPLM + 10% dialyzed FBS, 15.4 µM | 48.4 | 18.5 | 14.2
HPLM + 10% dialyzed FBS, 46.1 µM | 25.8 | 8.39 | 26.3
RPMI 5 mM glucose + 10% FBS, 0.000781 µM | 98.3 | 111 | 76.9
RPMI 5 mM glucose + 10% FBS, 0.00234 µM | 112 | 115 | 97
RPMI 5 mM glucose + 10% FBS, 0.00702 µM | 96.1 | 108 | 103
RPMI 5 mM glucose + 10% FBS, 0.0211 µM | 111 | 115 | 61.7
RPMI 5 mM glucose + 10% FBS, 0.0632 µM | 115 | 76.5 | 78.3
RPMI 5 mM glucose + 10% FBS, 0.19 µM | 121 | 70.2 | 79.3
RPMI 5 mM glucose + 10% FBS, 0.569 µM | 117 | 55.3 | 7.13
RPMI 5 mM glucose + 10% FBS, 1.71 µM | 109 | 55.9 | 22.6
RPMI 5 mM glucose + 10% FBS, 5.12 µM | 97.7 | 40 | 45.9
RPMI 5 mM glucose + 10% FBS, 15.4 µM | 33.2 | 17.9 | 17.7
RPMI 5 mM glucose + 10% FBS, 46.1 µM | 18.1 | 7.85 | 30.4
RPMI 5 mM glucose + 10% dialyzed FBS, 0.000781 µM | 106 | 99.5 | 73.1
RPMI 5 mM glucose + 10% dialyzed FBS, 0.00234 µM | 112 | 108 | 82.4
RPMI 5 mM glucose + 10% dialyzed FBS, 0.00702 µM | 111 | 100 | 109
RPMI 5 mM glucose + 10% dialyzed FBS, 0.0211 µM | 127 | 93.2 | 96.4
RPMI 5 mM glucose + 10% dialyzed FBS, 0.0632 µM | 122 | 77.6 | 101
RPMI 5 mM glucose + 10% dialyzed FBS, 0.19 µM | 117 | 57.9 | 75.7
RPMI 5 mM glucose + 10% dialyzed FBS, 0.569 µM | 113 | 47.4 | 7.45
RPMI 5 mM glucose + 10% dialyzed FBS, 1.71 µM | 110 | 52.6 | 20.3
RPMI 5 mM glucose + 10% dialyzed FBS, 5.12 µM | 99.8 | 34 | 47.6
RPMI 5 mM glucose + 10% dialyzed FBS, 15.4 µM | 105 | 30.1 | 11.4
RPMI 5 mM glucose + 10% dialyzed FBS, 46.1 µM | 32.2 | 9.61 | 19.8

AUC of viability dose-response curve
Conditions | [4] | [5] | [6]
HPLM + 10% dialyzed FBS | 411 | 315 | 255
RPMI 5 mM glucose + 10% FBS | 418 | 288 | 270
RPMI 5 mM glucose + 10% dialyzed FBS | 456 | 288 | 280

Cl.Cl.Cl.O[C@@H](COc1cccc2ncccc12)CN1CCN([C@@H]2c3ccccc3[C@@H]3[C@H](c4ccccc42)C3(F)F)CC1
cell viability [%]
Conditions | [1] | [2] | [3]
HPLM + 10% dialyzed FBS, 0.000781 µM | 79.7 | 94.8 | 88.2
HPLM + 10% dialyzed FBS, 0.00234 µM | 84.8 | 94.5 | 103
HPLM + 10% dialyzed FBS, 0.00702 µM | 75.8 | 88.4 | 82.3
HPLM + 10% dialyzed FBS, 0.0211 µM | 89.4 | 89.7 | 83.8
HPLM + 10% dialyzed FBS, 0.0632 µM | 94.7 | 90.5 | 105
HPLM + 10% dialyzed FBS, 0.19 µM | 102 | 92.9 | 90
HPLM + 10% dialyzed FBS, 0.569 µM | 93.8 | 84 | 84.5
HPLM + 10% dialyzed FBS, 1.71 µM | 76.5 | 83.8 | 89.6
HPLM + 10% dialyzed FBS, 5.12 µM | 94.6 | 81.8 | 91.9
HPLM + 10% dialyzed FBS, 15.4 µM | 70.8 | 84.5 | 71.2
HPLM + 10% dialyzed FBS, 46.1 µM | 68.6 | 79.3 | 73.4
RPMI 5 mM glucose + 10% FBS, 0.000781 µM | 79.7 | 89.1 | 89.3
RPMI 5 mM glucose + 10% FBS, 0.00234 µM | 78.4 | 79.1 | 100
RPMI 5 mM glucose + 10% FBS, 0.00702 µM | 75.8 | 77.9 | 75.7
RPMI 5 mM glucose + 10% FBS, 0.0211 µM | 91.7 | 84 | 95.7
RPMI 5 mM glucose + 10% FBS, 0.0632 µM | 97 | 88.5 | 98.6
RPMI 5 mM glucose + 10% FBS, 0.19 µM | 84.5 | 87 | 82.6
RPMI 5 mM glucose + 10% FBS, 0.569 µM | 89.8 | 71 | 86.2
RPMI 5 mM glucose + 10% FBS, 1.71 µM | 87.9 | 81.6 | 94.5
RPMI 5 mM glucose + 10% FBS, 5.12 µM | 81 | 78.4 | 100
RPMI 5 mM glucose + 10% FBS, 15.4 µM | 76.2 | 79.8 | 97.3
RPMI 5 mM glucose + 10% FBS, 46.1 µM | 74.2 | 84.6 | 3.4
RPMI 5 mM glucose + 10% dialyzed FBS, 0.000781 µM | 98.6 | 91.8 | 94.1
RPMI 5 mM glucose + 10% dialyzed FBS, 0.00234 µM | 83.8 | 84.3 | 92.1
RPMI 5 mM glucose + 10% dialyzed FBS, 0.00702 µM | 87.2 | 86.3 | 85.7
RPMI 5 mM glucose + 10% dialyzed FBS, 0.0211 µM | 79.5 | 86.7 | 93.9
RPMI 5 mM glucose + 10% dialyzed FBS, 0.0632 µM | 81 | 81.6 | 101
RPMI 5 mM glucose + 10% dialyzed FBS, 0.19 µM | 92.4 | 84.6 | 102
RPMI 5 mM glucose + 10% dialyzed FBS, 0.569 µM | 73.5 | 84.4 | 86.9
RPMI 5 mM glucose + 10% dialyzed FBS, 1.71 µM | 84.2 | 77.8 | 106
RPMI 5 mM glucose + 10% dialyzed FBS, 5.12 µM | 86.2 | 78.6 | 85.3
RPMI 5 mM glucose + 10% dialyzed FBS, 15.4 µM | 78.2 | 78.4 | 105
RPMI 5 mM glucose + 10% dialyzed FBS, 46.1 µM | 87 | 76.3 | 83.5

AUC of viability dose-response curve
Conditions | [4] | [5] | [6]
HPLM + 10% dialyzed FBS | 404 | 418 | 421
RPMI 5 mM glucose + 10% FBS | 397 | 391 | 418
RPMI 5 mM glucose + 10% dialyzed FBS | 401 | 395 | 449

COc1ccc(CC2NCCc3cc(OC)c(OC)cc32)cc1OC (centres undefined)
cell viability [%]
Conditions | [1] | [2] | [3]
HPLM + 10% dialyzed FBS, 0.000781 µM | 91.9 | 88.9 | 89.6
HPLM + 10% dialyzed FBS, 0.00234 µM | 87.5 | 96.3 | 93
HPLM + 10% dialyzed FBS, 0.00702 µM | 82.6 | 98.2 | 86.6
HPLM + 10% dialyzed FBS, 0.0211 µM | 103 | 99.8 | 85.3
HPLM + 10% dialyzed FBS, 0.0632 µM | 102 | 95 | 65.7
HPLM + 10% dialyzed FBS, 0.19 µM | 98.7 | 98.9 | 94.2
HPLM + 10% dialyzed FBS, 0.569 µM | 91.6 | 97.4 | 93.3
HPLM + 10% dialyzed FBS, 1.71 µM | 87.4 | 95.5 | 93.7
HPLM + 10% dialyzed FBS, 5.12 µM | 101 | 94 | 88.4
HPLM + 10% dialyzed FBS, 15.4 µM | 93.7 | 94 | 79.5
HPLM + 10% dialyzed FBS, 46.1 µM | 98.4 | 96.7 | 15.4
RPMI 5 mM glucose + 10% FBS, 0.000781 µM | 88.1 | 85.5 | 85.2
RPMI 5 mM glucose + 10% FBS, 0.00234 µM | 86.2 | 88.7 | 84
RPMI 5 mM glucose + 10% FBS, 0.00702 µM | 87 | 89 | 82.2
RPMI 5 mM glucose + 10% FBS, 0.0211 µM | 90.8 | 87.1 | 97.4
RPMI 5 mM glucose + 10% FBS, 0.0632 µM | 86.8 | 83.2 | 82.4
RPMI 5 mM glucose + 10% FBS, 0.19 µM | 89.3 | 86 | 99.1
RPMI 5 mM glucose + 10% FBS, 0.569 µM | 89.7 | 90.9 | 88.5
RPMI 5 mM glucose + 10% FBS, 1.71 µM | 94.7 | 89.2 | 93.5
RPMI 5 mM glucose + 10% FBS, 5.12 µM | 86.6 | 82.3 | 97.5
RPMI 5 mM glucose + 10% FBS, 15.4 µM | 89.4 | 92.2 | 47
RPMI 5 mM glucose + 10% FBS, 46.1 µM | 97.1 | 84.8 | 12.8
RPMI 5 mM glucose + 10% dialyzed FBS, 0.000781 µM | 79.5 | 95 | 85.9
RPMI 5 mM glucose + 10% dialyzed FBS, 0.00234 µM | 84.1 | 92.9 | 78.6
RPMI 5 mM glucose + 10% dialyzed FBS, 0.00702 µM | 83.9 | 86.7 | 90.7
RPMI 5 mM glucose + 10% dialyzed FBS, 0.0211 µM | 91.2 | 87.9 | 87.3
RPMI 5 mM glucose + 10% dialyzed FBS, 0.0632 µM | 86.3 | 82.1 | 71.4
RPMI 5 mM glucose + 10% dialyzed FBS, 0.19 µM | 89.2 | 92.4 | 98.2
RPMI 5 mM glucose + 10% dialyzed FBS, 0.569 µM | 82.9 | 85.3 | 105
RPMI 5 mM glucose + 10% dialyzed FBS, 1.71 µM | 91 | 88.2 | 99.9
RPMI 5 mM glucose + 10% dialyzed FBS, 5.12 µM | 89.5 | 87.8 | 95.2
RPMI 5 mM glucose + 10% dialyzed FBS, 15.4 µM | 73.3 | 91.3 | 66.8
RPMI 5 mM glucose + 10% dialyzed FBS, 46.1 µM | 85.4 | 82.4 | 19.3

AUC of viability dose-response curve
Conditions | [4] | [5] | [6]
HPLM + 10% dialyzed FBS | 451 | 459 | 397
RPMI 5 mM glucose + 10% FBS | 427 | 416 | 390
RPMI 5 mM glucose + 10% dialyzed FBS | 407 | 420 | 403
